Measurements taken from patent US12240844B2 (Voronoi, Inc., priority 2019, dated 2025).

Assays:
Assay in all cases: scanMAX Kinase panel (DiscoverX), % control
Format in all cases: binding
Conditions in all cases: <35% = active
[1] = target: T1, ALK (Homo sapiens, UniProt Q9UM73)
T1 construct: purchased DiscoverX
Outline: (§1)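 Kinase selectivity profiled on the scanMAX panel with compound at 1 uM in DMSO. % control was computed relative to DMSO as negative control (100%) and a positive control compound (0%); values below 35% were counted as activity against that kinase.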

[2] = target: T2, GAK (Homo sapiens, UniProt O14976)
T2 construct: purchased DiscoverX
T2 sequence (O14976 1-1311): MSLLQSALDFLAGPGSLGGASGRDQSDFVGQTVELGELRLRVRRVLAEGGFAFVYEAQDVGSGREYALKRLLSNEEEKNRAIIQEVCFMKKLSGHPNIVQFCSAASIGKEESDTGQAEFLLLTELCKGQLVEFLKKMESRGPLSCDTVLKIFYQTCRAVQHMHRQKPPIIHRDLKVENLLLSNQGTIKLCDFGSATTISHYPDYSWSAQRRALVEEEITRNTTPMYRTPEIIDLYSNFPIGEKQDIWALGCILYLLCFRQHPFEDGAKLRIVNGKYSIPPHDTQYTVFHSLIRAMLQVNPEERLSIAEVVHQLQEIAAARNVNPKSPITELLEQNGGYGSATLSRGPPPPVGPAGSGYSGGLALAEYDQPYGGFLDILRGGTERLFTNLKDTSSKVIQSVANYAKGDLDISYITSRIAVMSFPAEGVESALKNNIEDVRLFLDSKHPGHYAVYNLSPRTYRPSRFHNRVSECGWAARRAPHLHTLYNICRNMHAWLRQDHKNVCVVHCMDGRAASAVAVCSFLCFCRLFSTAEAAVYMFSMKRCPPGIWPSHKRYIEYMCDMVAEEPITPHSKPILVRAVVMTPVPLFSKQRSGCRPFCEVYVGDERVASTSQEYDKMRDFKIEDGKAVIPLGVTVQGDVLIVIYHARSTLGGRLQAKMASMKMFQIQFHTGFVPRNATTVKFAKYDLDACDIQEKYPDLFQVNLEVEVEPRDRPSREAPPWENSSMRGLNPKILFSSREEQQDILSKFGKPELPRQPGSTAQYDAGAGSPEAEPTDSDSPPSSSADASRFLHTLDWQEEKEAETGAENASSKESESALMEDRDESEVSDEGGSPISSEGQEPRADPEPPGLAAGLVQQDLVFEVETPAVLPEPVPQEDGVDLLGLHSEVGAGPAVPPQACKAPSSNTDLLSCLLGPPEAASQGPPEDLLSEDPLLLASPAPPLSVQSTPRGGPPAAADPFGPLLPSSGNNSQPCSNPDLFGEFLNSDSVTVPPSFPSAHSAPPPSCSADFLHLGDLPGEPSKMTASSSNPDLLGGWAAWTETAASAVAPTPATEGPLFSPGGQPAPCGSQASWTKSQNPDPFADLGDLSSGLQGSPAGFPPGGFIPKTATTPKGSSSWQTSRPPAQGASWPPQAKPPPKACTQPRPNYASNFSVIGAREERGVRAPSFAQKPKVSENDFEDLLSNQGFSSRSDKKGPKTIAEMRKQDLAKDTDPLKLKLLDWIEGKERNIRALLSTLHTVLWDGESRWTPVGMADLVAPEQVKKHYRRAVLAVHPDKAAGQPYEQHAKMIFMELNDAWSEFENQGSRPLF
Outline: as §1

[3] = target: LRRK2 (G2019S) (Homo sapiens, UniProt Q5S007, G2019S); parameters: purchased DiscoverX
Chain of LRRK2 (G2019S) (Q5S007 whole entry G2019S): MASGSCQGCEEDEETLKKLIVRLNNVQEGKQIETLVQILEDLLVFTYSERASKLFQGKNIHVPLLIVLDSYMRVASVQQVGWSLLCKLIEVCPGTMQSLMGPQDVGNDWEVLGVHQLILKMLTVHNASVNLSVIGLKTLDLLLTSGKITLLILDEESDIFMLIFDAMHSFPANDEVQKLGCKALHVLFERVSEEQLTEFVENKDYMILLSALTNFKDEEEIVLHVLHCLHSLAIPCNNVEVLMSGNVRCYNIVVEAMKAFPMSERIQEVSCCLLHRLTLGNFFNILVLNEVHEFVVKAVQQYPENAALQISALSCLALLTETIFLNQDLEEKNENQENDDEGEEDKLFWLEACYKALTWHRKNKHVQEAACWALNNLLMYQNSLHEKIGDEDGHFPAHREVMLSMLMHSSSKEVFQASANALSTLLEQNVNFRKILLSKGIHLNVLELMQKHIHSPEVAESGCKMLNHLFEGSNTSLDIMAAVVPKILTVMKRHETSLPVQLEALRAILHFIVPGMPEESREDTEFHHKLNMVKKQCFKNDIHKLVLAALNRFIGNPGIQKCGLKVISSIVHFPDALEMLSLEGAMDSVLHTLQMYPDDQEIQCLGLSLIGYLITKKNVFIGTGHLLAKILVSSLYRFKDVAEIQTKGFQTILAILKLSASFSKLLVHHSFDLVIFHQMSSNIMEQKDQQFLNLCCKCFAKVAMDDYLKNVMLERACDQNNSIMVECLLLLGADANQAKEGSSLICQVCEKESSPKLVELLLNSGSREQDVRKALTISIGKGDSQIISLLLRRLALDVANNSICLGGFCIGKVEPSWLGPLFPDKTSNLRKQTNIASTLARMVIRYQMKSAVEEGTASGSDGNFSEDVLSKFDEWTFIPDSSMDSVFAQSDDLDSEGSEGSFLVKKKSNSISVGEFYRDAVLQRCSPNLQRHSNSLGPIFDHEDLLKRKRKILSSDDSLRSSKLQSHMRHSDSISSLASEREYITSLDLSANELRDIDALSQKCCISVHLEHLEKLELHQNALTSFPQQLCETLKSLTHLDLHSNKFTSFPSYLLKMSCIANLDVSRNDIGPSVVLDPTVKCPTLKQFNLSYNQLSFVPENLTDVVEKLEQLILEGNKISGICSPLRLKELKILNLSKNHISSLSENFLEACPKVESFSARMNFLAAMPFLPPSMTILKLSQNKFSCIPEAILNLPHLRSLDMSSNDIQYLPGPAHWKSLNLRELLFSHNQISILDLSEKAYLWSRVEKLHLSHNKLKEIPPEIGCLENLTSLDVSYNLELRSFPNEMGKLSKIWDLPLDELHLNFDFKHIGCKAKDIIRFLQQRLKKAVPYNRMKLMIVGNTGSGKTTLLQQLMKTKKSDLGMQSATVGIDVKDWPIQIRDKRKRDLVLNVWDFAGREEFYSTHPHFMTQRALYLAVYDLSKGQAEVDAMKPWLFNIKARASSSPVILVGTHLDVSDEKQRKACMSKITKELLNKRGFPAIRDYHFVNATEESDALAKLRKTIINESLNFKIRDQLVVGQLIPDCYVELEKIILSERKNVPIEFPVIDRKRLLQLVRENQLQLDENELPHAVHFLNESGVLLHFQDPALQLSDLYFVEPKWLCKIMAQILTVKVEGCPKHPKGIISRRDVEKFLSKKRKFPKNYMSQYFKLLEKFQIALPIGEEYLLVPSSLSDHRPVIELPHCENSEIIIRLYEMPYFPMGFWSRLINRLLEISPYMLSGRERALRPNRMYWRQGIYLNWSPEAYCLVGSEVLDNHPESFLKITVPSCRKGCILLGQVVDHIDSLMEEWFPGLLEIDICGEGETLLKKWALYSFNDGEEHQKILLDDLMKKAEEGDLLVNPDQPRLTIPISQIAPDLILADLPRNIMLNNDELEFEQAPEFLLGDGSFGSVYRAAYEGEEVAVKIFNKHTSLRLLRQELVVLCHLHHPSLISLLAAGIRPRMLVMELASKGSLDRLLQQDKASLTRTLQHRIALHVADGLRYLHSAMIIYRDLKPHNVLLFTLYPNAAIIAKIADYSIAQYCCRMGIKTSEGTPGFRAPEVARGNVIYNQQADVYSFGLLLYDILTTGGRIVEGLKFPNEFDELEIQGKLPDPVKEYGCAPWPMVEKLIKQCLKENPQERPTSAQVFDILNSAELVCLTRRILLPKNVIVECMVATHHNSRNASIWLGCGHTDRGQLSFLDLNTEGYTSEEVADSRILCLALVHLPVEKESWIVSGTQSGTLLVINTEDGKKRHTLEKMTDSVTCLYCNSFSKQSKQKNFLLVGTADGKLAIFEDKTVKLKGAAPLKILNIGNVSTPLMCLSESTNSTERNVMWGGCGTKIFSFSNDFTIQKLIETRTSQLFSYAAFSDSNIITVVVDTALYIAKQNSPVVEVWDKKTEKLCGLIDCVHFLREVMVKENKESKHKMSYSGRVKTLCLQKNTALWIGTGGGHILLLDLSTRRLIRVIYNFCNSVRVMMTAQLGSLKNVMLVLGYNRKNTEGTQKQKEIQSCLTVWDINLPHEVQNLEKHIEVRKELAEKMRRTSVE
Experimental: (§2) Specifically, for Examples 162, 160, 105, 217, 205, 96, 207, 184, 206, 221, 238, and 237 selected among the example compounds of the present invention, it was decided to measure enzyme (kinase) selectivity by DiscoverX, and the experiment was conducted using a panel for scanMAX™ Kinase analysis. At this time, the concentration of the drug treated with the enzyme was 1 uM in DMSO, the control percentage (% control) was determined in the same way as in Equation 1 below, and the results were shown in Table 6 below. [formula] Here, the positive control refers to a compound showing a control percentage of 0%, and the negative control is DMSO, indicating a control percentage of 100%. Also, in the enzyme selectivity of the present invention, if the control percentage for each enzyme was <35% (i.e., less than 35%), it was determined to have activity against the relevant enzyme.

[4] = target: LRRK2 (Homo sapiens, UniProt Q5S007); parameters: purchased DiscoverX
Chain of LRRK2 (Q5S007 whole entry): as the sequence (Q5S007 whole entry G2019S) above, with S2019G counted along it
Experimental: as §2

[5] = target: T3, TTK (Homo sapiens, UniProt P33981); parameters: purchased DiscoverX
T3 sequence (P33981 1-857): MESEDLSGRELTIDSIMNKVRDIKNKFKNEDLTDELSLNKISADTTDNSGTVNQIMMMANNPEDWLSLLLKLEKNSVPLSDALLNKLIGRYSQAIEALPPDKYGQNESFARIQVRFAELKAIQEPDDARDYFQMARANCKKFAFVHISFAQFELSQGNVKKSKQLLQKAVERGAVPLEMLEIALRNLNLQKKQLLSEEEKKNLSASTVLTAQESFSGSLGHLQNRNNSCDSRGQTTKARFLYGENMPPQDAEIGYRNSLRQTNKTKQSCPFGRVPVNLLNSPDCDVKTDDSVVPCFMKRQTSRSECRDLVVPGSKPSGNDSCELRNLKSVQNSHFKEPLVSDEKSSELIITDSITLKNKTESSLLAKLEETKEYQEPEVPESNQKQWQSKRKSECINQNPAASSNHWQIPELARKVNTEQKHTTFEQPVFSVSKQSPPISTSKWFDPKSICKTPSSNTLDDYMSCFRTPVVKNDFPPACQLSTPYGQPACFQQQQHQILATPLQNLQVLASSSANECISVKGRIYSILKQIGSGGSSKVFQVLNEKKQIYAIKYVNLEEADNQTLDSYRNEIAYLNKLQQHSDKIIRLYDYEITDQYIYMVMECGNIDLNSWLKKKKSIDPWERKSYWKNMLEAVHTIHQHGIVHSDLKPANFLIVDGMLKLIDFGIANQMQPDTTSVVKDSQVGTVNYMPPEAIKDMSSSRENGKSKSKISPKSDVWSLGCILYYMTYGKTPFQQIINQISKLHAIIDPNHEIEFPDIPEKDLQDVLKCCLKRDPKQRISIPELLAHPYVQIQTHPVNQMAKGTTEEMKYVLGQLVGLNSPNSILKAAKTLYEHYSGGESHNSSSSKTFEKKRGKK
Experimental: as §2

T1 sequence (Q9UM73 19-1620): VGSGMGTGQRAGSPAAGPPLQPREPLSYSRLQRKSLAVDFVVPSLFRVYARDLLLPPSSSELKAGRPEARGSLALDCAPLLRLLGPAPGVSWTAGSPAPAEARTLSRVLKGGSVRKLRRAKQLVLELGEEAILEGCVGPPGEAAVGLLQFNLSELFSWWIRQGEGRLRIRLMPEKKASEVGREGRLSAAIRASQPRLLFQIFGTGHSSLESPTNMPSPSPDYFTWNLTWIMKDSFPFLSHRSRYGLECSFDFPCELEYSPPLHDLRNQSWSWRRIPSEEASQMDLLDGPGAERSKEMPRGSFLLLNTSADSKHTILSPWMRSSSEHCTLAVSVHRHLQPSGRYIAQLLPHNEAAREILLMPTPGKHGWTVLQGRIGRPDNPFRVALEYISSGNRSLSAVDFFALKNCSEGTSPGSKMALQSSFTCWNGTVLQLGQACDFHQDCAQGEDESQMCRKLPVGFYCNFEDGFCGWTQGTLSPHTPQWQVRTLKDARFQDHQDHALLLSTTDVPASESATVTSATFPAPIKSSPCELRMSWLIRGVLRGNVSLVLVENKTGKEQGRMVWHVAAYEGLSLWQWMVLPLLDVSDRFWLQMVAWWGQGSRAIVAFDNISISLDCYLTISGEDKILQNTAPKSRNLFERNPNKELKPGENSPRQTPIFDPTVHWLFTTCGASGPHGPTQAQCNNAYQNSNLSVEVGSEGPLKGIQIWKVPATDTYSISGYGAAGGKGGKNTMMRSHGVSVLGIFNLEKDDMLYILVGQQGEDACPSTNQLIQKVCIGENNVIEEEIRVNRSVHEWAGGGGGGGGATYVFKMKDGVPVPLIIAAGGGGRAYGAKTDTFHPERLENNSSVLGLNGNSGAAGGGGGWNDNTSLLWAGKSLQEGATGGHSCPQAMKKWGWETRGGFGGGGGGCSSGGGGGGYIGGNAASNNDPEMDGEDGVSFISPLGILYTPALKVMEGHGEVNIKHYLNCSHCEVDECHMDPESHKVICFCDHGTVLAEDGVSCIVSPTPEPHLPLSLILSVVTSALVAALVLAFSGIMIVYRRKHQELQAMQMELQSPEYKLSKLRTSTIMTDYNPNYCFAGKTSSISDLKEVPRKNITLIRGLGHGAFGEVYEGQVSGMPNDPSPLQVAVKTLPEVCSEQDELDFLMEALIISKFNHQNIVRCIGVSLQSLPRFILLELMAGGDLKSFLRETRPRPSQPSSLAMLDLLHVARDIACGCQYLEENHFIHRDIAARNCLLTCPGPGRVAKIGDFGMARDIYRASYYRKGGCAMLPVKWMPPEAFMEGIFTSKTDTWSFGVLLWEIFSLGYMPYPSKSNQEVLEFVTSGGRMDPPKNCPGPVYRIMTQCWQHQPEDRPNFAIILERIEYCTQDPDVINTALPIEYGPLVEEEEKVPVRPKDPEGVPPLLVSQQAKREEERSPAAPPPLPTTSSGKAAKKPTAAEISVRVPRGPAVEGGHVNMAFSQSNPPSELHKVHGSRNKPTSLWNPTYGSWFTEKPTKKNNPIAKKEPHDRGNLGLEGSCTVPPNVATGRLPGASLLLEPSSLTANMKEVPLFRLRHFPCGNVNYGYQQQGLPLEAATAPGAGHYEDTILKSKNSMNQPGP

O=C(c1ccc(Nc2cc(C3CC3)c3c(C(F)(F)F)c[nH]c3n2)c2c1OCCO2)N1CCC(N2CCOCC2)CC1 [Example 221, (8-((4-cyclopropyl-3-(trifluoromethyl)-1H-pyrrolo[2,3-b]pyridin-6-yl)amino)-2,3-dihydrobenzo [b] [1,4]dioxin-5-yl)(4-morpholinopiperidin-1-yl)methanone]
remaining binding at 1 µM [1]: 17% | remaining binding at 1 µM [2]: 12% | remaining binding at 1 µM [3]: 5.5% | remaining binding at 1 µM [4]: 14% | remaining binding at 1 µM [5]: 4.5%
